From patent US20260374818A1, “CATIONIC PEPTIDES WITH BROAD SPECTRUM ACTIVITY” (priority 2023, published 2026)
Where two headings read alike, the source gives them in different places. Where a SMILES comes first, the peptide text is derived from it. [ ]: non-standard residue; d: D form.

Key:
[1] = tested on: P. aeruginosa PAO1 biofilms; experiment: Biofilm inhibition by SPOT-synthesized AB103-D variants (crystal violet), P. aeruginosa; assay type: cell-based, Pseudomonas aeruginosa; conditions: P. aeruginosa PAO1, SPOT peptides
MRSA USA300 biofilms = experiment: Biofilm inhibition by >95% pure peptides (crystal violet), MRSA; assay type: cell-based, methicillin resistant Staphylococcus aureus; conditions: MRSA USA300 biofilms, >95% pure peptides, 10% TSB + 0.1% glucose
[2] = Subdermal murine toxicity model; conditions: 16 hours after administration, 4 mg/kg
Procedure: FIGS. 14A-14B show murine subdermal toxicity assessment of AB103-D derived peptides. Clinical scores were recorded for each peptide treated mouse one hour after peptide administration (FIG. 14A). […] The presence of a cyst or lesion was recorded 16 hours after peptide administration and the size of the cyst was measured using calipers (FIG. 14B). Data shown are the mean of two independent replicates at a peptide dose of 4 mg/kg.
Subdermal murine toxicity model: A subdermal toxicity mouse model was used to evaluate whether peptides induced localized toxicity of treated cutaneous tissue. Mice were anesthetized with 2.5-3% isoflurane and their fur was removed by shaving followed by application of a chemical depilatory. […] Mice were visually assessed and received clinical scores for a battery of signs or symptoms (activity/behaviour change, appearance/grooming, hydration, pain, cyst formation), for which a score of zero was given to animals that appeared normal. Animals were weighed and clinical scores were totalled. Following an overnight (16 h) incubation, mice were scored and weighed then euthanized with CO2 followed by cervical dislocation. Mice were imaged and cysts (swollen, inflamed tissue) were measured using a caliper. Animal experiments were performed in accordance with the Canadian Council on Animal Care (CCAC) guidelines and were approved by the University of British Columbia Animal Care Committee. Female CD-1 mice were purchased from Charles River Laboratories, Inc. (Wilmington, MA). All mice were 8 weeks of age and weighed 25±5 g at the time of the experiment. Animals were group housed in cohorts of three to four littermates. Standard animal husbandry practices were employed.

[3] = tested on: P. aeruginosa PAO1 biofilms; conditions: P. aeruginosa PAO1 biofilms; >95% pure peptides; crystal violet; BM2 minimal media
[4] = tested on: P. aeruginosa PAO1 biofilms; experiment: Checkerboard biofilm synergy of AB103-D with antimicrobials, PAO1; assay type: cell-based, Pseudomonas aeruginosa; conditions: for FIC against biofilms: antibiotic used with AB103-D, PAO1, BM2, ≤0.5 synergy; for Fold Decrease in concentration of AB103-D: in combination of antibiotic with AB103-D; for Fold Decrease in concentration of AB103-D / Fold Decrease in concentration of Antibiotic: PAO1; for Fold Decrease in concentration of Antibiotic: in combination with AB103-D; for Antibiotic MBIC against biofilms: antibiotic alone, PAO1, BM2, at least 70% reduction
[5] = tested on: MRSA USA 300 LAC biofilms; experiment: Checkerboard biofilm synergy of AB103-D with antimicrobials, MRSA; assay type: cell-based, methicillin resistant Staphylococcus aureus; conditions: for FIC: antibiotic used with AB103-D, MRSA USA 300 LAC, ≤0.5 synergy; for Fold decrease AB103-D: in combination of antibiotic with AB103-D; for Fold decrease AB103-D / Fold decrease Antibiotic / Biofilm MBIC in 10% TSB, 0.1% glucose: MRSA; for Fold decrease Antibiotic: in combination with AB103-D; for Biofilm MBIC in 10% TSB, 0.1% glucose: antibiotic alone, at least 70% reduction
[6] = tested on: P. aeruginosa PAO1 planktonic cells; experiment: MIC of antibiotics against planktonic cells, PAO1; assay type: cell-based, Pseudomonas aeruginosa; conditions: for MIC: Pseudomonas aeruginosa; for MIC against planktonic cells in BM2 medium: PAO1, BM2; for MIC against planktonic cells in MHB medium: PAO1, MHB
[7] = tested on: MRSA USA 300 LAC planktonic cells; experiment: MIC of antibiotics against planktonic cells, MRSA; assay type: cell-based, methicillin resistant Staphylococcus aureus; conditions: for MIC: Staphylococcus aureus; for MIC in 10% TSB, 0.1% glucose / MIC in MHB medium: MRSA planktonic
[8] = PAO1, read-out: MIC against planktonic cells in BM2 medium
[9] = PAO1, read-out: MIC against planktonic cells in MHB medium
[10] = read-out: MIC in 10% TSB, 0.1% glucose

Molecule	Activity against PAO1 biofilms compared to AB103-D [1]	minimum inhibitory concentration of peptide that inhibited at least 90% of biofilm growth (MBIC90) (MRSA USA300 biofilms) [µM]	Average cyst size compared to DJK-5 [2]	minimum inhibitory concentration of peptide that inhibited at least 90% of biofilm growth (MBIC90) [3] [µM]	FIC against biofilms [4]	Fold Decrease in concentration of AB103-D [4]	Fold Decrease in concentration of Antibiotic [4]	FIC [5]	Fold decrease AB103-D [5]	Fold decrease Antibiotic [5]	MIC [6, 8] [µg/mL]	MIC [6, 9] [µg/mL]	MIC [7, 10] [µg/mL]	MIC ([7]; read-out: MIC in MHB medium) [µg/mL]	Antibiotic MBIC against biofilms [4] [µg/mL]	Biofilm MBIC in 10% TSB, 0.1% glucose [5]	MIC against planktonic cells in BM2 medium [6] [µg/mL]	MIC against planktonic cells in MHB medium [6] [µg/mL]	MIC in 10% TSB, 0.1% glucose [7]	MIC in MHB medium [7] [µg/mL]
CC[C@@H](C)[C@@H](NC(=O)[C@@H](C)NC(=O)[C@@H](CCCNC(=N)N)NC(=O)[C@@H](Cc1c[nH]c2ccccc12)NC(=O)[C@@H](CCC(N)=O)NC(=O)[C@H](NC(=O)[C@@H](CCCNC(=N)N)NC(=O)[C@H](NC(=O)[C@H](NC(=O)[C@H](NC(=O)[C@H](NC(=O)[C@H](N)CCCNC(=N)N)C(C)C)[C@H](C)CC)C(C)C)[C@H](C)CC)C(C)C)C(N)=O [AB116-D, rvivirvqwrai] (H-[dR][dV][dI][dV][dI][dR][dV][dQ][dW][dR][dA][dI]-NH2)	activity superior to that of AB103-D	1	smaller than those induced by DJK-5	>16																
CCN1CCN(C(=O)N[C@@H](C(=O)N[C@@H]2C(=O)N3[C@@H]2SC(C)(C)[C@@H]3C(=O)O)c2ccccc2)C(=O)C1=O [Piperacillin]					1	2-fold	2-fold	0.63	2-fold	8-fold	4	8	4	4						
NC[C@H]1O[C@H](O[C@H]2[C@H](O)[C@@H](O[C@H]3O[C@H](CO)[C@@H](O)[C@H](N)[C@H]3O)[C@H](N)C[C@@H]2N)[C@H](N)C[C@@H]1O [Tobramycin]					1	2-fold	2-fold	0.38	8-fold	4-fold	2	0.5	0.125	0.125						
COc1cc(Cc2cnc(N)nc2N)cc(OC)c1OC [Trimethoprim]					1	2-fold	2-fold	0.56	2-fold	16-fold	128	256	8	2						
CN[C@H](CC(C)C)C(=O)N[C@H]1C(=O)N[C@@H](CC(N)=O)C(=O)N[C@H]2C(=O)N[C@H]3C(=O)N[C@H](C(=O)N[C@H](C(=O)O)c4cc(O)cc(O)c4-c4cc3ccc4O)[C@H](O)c3ccc(c(Cl)c3)Oc3cc2cc(c3O[C@@H]2O[C@H](CO)[C@@H](O)[C@H](O)[C@H]2O[C@H]2C[C@](C)(N)[C@H](O)[C@H](C)O2)Oc2ccc(cc2Cl)[C@H]1O [Vancomycin]					0.56	2-fold	16-fold	0.38	8-fold	4-fold	256	> 256	0.25	0.25						
Benzalkonium-C1					0.51	2-fold	128-fold	0.5	4-fold	4-fold					16	1	16	16	1	0.25
Colistin					0.63	8-fold	2-fold	0.63	2-fold	8-fold					4	2	4	1	4	8
Gentamicin					0.53	2-fold	32-fold	1.13	No	8-fold					4	0.03	4	1	0.06	0.06
Polymyxin B					0.56	16-fold	2-fold	0.5	4-fold	4-fold					2	2	2	2	2	4
Polyvinylpyrrolidone-Iodine					0.52	2-fold	64-fold	0.63	2-fold	8-fold					313	156	313	2500	156	2500
